Experimental data published in PMC5644030 (Biochemistry, 2017).

Experiments:
Rv3404c [1] = molecular target: T1, Rv3404c (Mycobacterium tuberculosis, UniProt P9WKZ3)
Rv3404c [2] = molecular target: T1, Rv3404c; remark: listed apart in the source

T1 sequence (P9WKZ3 whole entry): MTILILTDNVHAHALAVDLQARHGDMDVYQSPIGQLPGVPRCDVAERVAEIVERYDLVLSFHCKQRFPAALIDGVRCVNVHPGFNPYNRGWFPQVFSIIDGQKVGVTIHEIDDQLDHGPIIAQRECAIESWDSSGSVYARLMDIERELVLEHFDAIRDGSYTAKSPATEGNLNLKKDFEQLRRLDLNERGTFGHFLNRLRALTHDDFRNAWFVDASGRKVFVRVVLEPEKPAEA

| SMILES | X-ray crystallography, 1.6 Å ternary complex (Rv3404c [1]) | HPLC and ESI mass spectrometry of product (Rv3404c [2]) |
| --- | --- | --- |
| Nc1nc2c(c(=O)[nH]1)N(C=O)[C@@H](CNc1ccc(C(=O)N[C@@H](CCC(=O)O)C(=O)O)cc1)CN2 [N5-formyl-THF] | The structure of Rv3404c in complex with N5-formyltetrahydrofolate (N5-formyl-THF) and dTDP-Qui4N was determined | – |
| Nc1nc2c(c(=O)[nH]1)N[C@@H](CN(C=O)c1ccc(C(=O)N[C@@H](CCC(=O)O)C(=O)O)cc1)CN2 [N10-formyl-THF] | – | Upon incubation of dTDP-Qui4N and N10-formyl-THF with Rv3404c, a peak was observed |
